What all share (format): in vivo
The subject of series [1] is Male mice of ddY strain. The series can be described thus: Test 3 Muscle relaxant activity (traction test, method of Courvoisier et al.). The note with it: 15 minutes after administration, groups of ten.
Description: Male mice of ddY strain, weighing 30 to 37 g, were used in groups of ten. The test compounds were dissolved in physiological saline and administered intraperitoneally in a dose of 50 or 75 mg/kg. […] This method involves a traction test in which the animal is hung by its forelimbs on a horizontal metal rod (2 mm in diameter) placed 20 cm above the floor and examined as to whether it can put its hindlimb on the rod or not.
Specifically, 15 minutes after administration of a test compound, the mouse was hung on the rod by its forelimbs. […] It had been confirmed in preliminary tests that, under normal conditions, all the mice could put their hindlimb on the rod within 5 seconds.
Series [2] has as its system Male mice of ddY strain. The series can be described thus: Test 2 Anti-tremorine activity (inhibition of tremorine-induced tremor). The note with it: for responders at 50 mg/kg: Mus musculus, po, read-out: Inhibition of tremor (%).
Description: Male mice of ddY strain, weighing 28 to 32 g, were used in groups of eight or ten. The test compounds were dissolved in distilled water and administered orally in a dose of 50 mg/kg. After 30 minutes, tremorine dihydrochloride was subcutaneously administered in a dose of 20 mg/kg. Then, the occurrence of tremor was observed after the lapse of 30 and 60 minutes.
Series [3] has as its system Male mice of ddY strain. The series is described as follows: Test 5 Acute toxicity (LD50, method of Behrens and Kärbar). Conditions: Table-5a, observed for 7 days. As to the method:
(§1) Male mice of ddY strain, weighing 25 to 30 g, were used in groups of five. The test compounds were dissolved in distilled water and administered orally in various doses. […] Then, the LDso was calculated according to the method of Behrens and Kärbar.

Series [4] concerns Male rats of Wistar strain. The series can be described thus: Test 4 Effect on decerebrate rigidity induced by transection between superior and inferior colliculi. As to the method:
Male rats of Wistar strain, weighing 300 to 400 g, were used. The test compounds were dissolved in physiological saline and administered intravenously in doses of 10 mg/kg and 20 mg/kg.
Rigidity preparations were made according to the method of Fukuda et al. [The Japanese Journal of Pharmacology, 22, 457 (1972)]. Specifically, after a rat was fixed in a prone position under ether anesthesia, an incision was made in the head. The skull was removed around the occipital region to expose the brain. […] More than 2 hours after operation, the rat was mounted in a supine position on a fixing stand. Thus, the effect of the test compounds was evaluated by using the occurrence of rigidity in the antigravity muscles of the limbs as an index.

The subject of series [5] is Male mice of ddY strain. The series can be described thus: Test 1 Anti-nicotine activity (inhibition of nicotine-induced convulsive death). The note with it: 200 mg/kg po, nicotine 2 mg/kg iv after 1 h, observed 1 h; for responders at 200 mg/kg: Mus musculus. As to the method: Male mice of ddY strain, weighing 28 to 33 g, were used in groups of eight or twelve. The test compounds were dissolved in distilled water and administered orally in a dose of 200 mg/kg. After an hour, nicotine was intravenously administered in a dose of 2 mg/kg.

Series [6] is described as follows: Test 5 Acute toxicity (LD50, method of Behrens and Kärbar). The note with it: mouse, in vivo, Table-5c, mice, observed for 7 days. As to the method: as §1
[7] abbreviates: Table-3a, 50 mg/kg po, After 30 min. from tremorine 20 mg/kg sc, 8 animals used.
The mark [8] stands for this setting: Table-3a, 50 mg/kg po, After 60 min. from tremorine 20 mg/kg sc, 8 animals used.
Setting [9] is: 0.5 h, Table-3d, 50 mg/kg po, After 30 min., 10 animals used.
The mark [10] stands for this setting: 1 h, Table-3d, 50 mg/kg po, After 60 min., 10 animals used.
Setting [11] is: Table-3d, 50 mg/kg po, After 30 min., 10 animals used.
[12] abbreviates: Table-3d, 50 mg/kg po, After 60 min., 10 animals used.
Where [13] appears, read: po, 1 h, Table-2c, 12 animals used.

Here are results for four compounds from EP0163537A1, “1-Propanone derivatives and pharmaceutical compositions containing same” (priority 1984, dated 1985).

Like-named read-outs stand apart in the source and are kept apart here.

On to “1-(4-Cyclopropylphenyl)-2-methyl-3-piperidino-1-propanone hydrochloride [Example 1]”, for which, in the series with Male mice of ddY strain [1] (Table-4a, 50 mg/kg ip), the “Muscle relaxation rate (%)” value came out at 60% and the “Number of animals exhibiting muscle relaxation” value is on record as 6. Moreover, in the series with Male mice of ddY strain [2] (setting [7]), the “Inhibition of tremor (%)” value is 100% and the “Number of animals exhibiting no tremor” value is on record as 8. For the same compound, in the series on Male mice of ddY strain [2] (setting [8]), the “Inhibition of tremor (%)” value was found to be 87.5% and the “Number of animals exhibiting no tremor” value is recorded as 7. Also, the “Acute toxicity LD50 (mg/kg,po)” value in the series on Male mice of ddY strain [3] amounted to 535 mg/kg. Moreover, the “rigidity of the forelimbs and hindlimbs” value in series [4] (10 mg/kg intravenously) is “relaxed the rigidity of the forelimbs and hindlimbs to a significant degree”. For the same compound, in the series with Male mice of ddY strain [5] (Table-2a, 8 animals used), the “Inhibition of death (%)” value came to 100.0% and the “Number of surviving animals” value came out at 8.
One may read the LD50 as the dose at which mortality reaches 50%. High values mean lower toxicity, low ones greater toxicity. Consider `CC(CN1CCCCCC1)C(=O)c1ccc2c(c1)CCO2.Cl` (stereo not shown) [Example 93, 1-(2,3-Dihydro-5-benzofuranyl)-2-methyl-3-(hexahydro-1H-azepin-1-yl)-1-propanone hydrochloride], for which, in the series with Male mice of ddY strain [1] (Table-4d, 75 mg/kg ip), the “Number of animals exhibiting muscle relaxation” value was 6. For the same compound, the responders at 50 mg/kg with Male mice of ddY strain [2] (setting [9]) and in the series with Male mice of ddY strain [2] (setting [10]) was 100% throughout. The “Number of animals exhibiting no tremor” value in the series on Male mice of ddY strain [2] (setting [11]) and in the series with Male mice of ddY strain [2] (setting [12]) was 10 each time. Further, the LD50 at 168 h in series [6] (po) came out at 685 mg/kg. Further, in series [4] (20 mg/kg intravenously), the “rigidity of the forelimbs and hindlimbs” value is listed as “relaxed the rigidity similarly”. Further, the responders at 200 mg/kg in the series on Male mice of ddY strain [5] (setting [13]) worked out at 58.3%. The “Number of surviving animals” value in the series on Male mice of ddY strain [5] (Table-2c, 12 animals used) came to 7.
Take `CC(CN1CCCC1)C(=O)c1ccc2c(c1)CCO2.Cl` (stereo not shown) [Example 92, 1-(2,3-Dihydro-5-benzofuranyl)-2-methyl-3-(1-pyrrolidinyl)-1-propanone hydrochloride]: the “Number of animals exhibiting muscle relaxation” value in the series with Male mice of ddY strain [1] (Table-4d, 75 mg/kg ip) is 6. The responders at 50 mg/kg in the series on Male mice of ddY strain [2] (0.5 h) and in the series with Male mice of ddY strain [2] (1 h) was 100% each time. For the same compound, the “Number of animals exhibiting no tremor” value in the series on Male mice of ddY strain [2] (setting [11]) and with Male mice of ddY strain [2] (setting [12]) was 10 each time. The median lethal dose (LD50) at 168 h in series [6] (oral) came out at 685 mg/kg. For the same compound, in series [4] (20 mg/kg intravenously), the “rigidity of the forelimbs and hindlimbs” value is “relaxed the rigidity similarly”. For the same compound, the responders at 200 mg/kg with Male mice of ddY strain [5] (Table-2c, 12 animals used) was found to be 75%. In addition, in the series on Male mice of ddY strain [5] (Table-2c, 12 animals used), the “Number of surviving animals” value is 9.
Turning to `CC(CN1CCCCC1)C(=O)c1ccc2c(c1)CCO2.Cl` (stereo not shown) [Example 85, 1-(2,3-Dihydro-5-benzofuranyl)-2-methyl-3-piperidino-1-propanone hydrochloride], the “Number of animals exhibiting muscle relaxation” value with Male mice of ddY strain [1] (Table-4d, 75 mg/kg ip) is given as 8. The responders at 50 mg/kg in the series on Male mice of ddY strain [2] (setting [9]) and in the series with Male mice of ddY strain [2] (setting [10]) was 100% each time. For the same compound, the “Number of animals exhibiting no tremor” value in the series with Male mice of ddY strain [2] (setting [11]) and in the series on Male mice of ddY strain [2] (setting [12]) was 10 throughout. In addition, the LD50 at 168 h in series [6] (po) was 625 mg/kg. Besides, in series [4] (20 mg/kg intravenously), the “rigidity of the forelimbs and hindlimbs” value is reported as “relaxed the rigidity similarly”. The responders at 200 mg/kg in the series on Male mice of ddY strain [5] (setting [13]) was 66.7%. Moreover, the “Number of surviving animals” value in the series with Male mice of ddY strain [5] (Table-2c, 12 animals used) was determined as 8.
